In US20060246005A1, “Poly(peptide) as a chelator: methods of manufacture and uses” (THE BOARD OF REGENTS OF THE UNIVERSITY OF TEXAS SYSTEM, priority 2005, published 2006):

System: mammary tumor derived from RBA CRL-1747 cell line
Assay: Scintigraphic (planar) imaging in breast tumor-bearing rats
Assay type: in vivo, rat
Conditions: 0.5-4 hrs post-injection
Excerpt: The camera field of view is 20 cm×20 cm with an edge of 1.3 cm. The intrinsic spatial resolution is 3 mm and the matrix is 64×64.
To ascertain whether the tumor uptake by with ^99mTc-GAP-EDL was related to estrogen receptors, we performed a blocking study. […] Computer outlined regions of interest (ROI) (counts per pixel) were used to determine tumor-to-background count density ratios.
Scintigraphic images were obtained at 0.5-4.0 hrs after i.v. injection of ^99mTc-GAP-COX2i (300 μCi/rat, iv) and imaged at 0.5-4.0 hrs in mammary tumor-bearing rats (derived from RBA CRL-1747 cell line). Whole-body autoradiograms were obtained by a quantitative image analyzer (Cyclone Storage Phosphor System, Packard, Meridian, Conn.). Following intravenous injection of ^99mTc-GAP-COX2i (100 μCi/rat, iv), athymic nude mice bearing human uterine sarcoma in the right leg were killed at 1 hour and the body was fixed in carboxymethyl cellulose (3%). […] Each section was thawed and mounted on a slide. […]
Scintigraphic images were obtained at 0.5-4.0 hrs after i.v. injection of ^99“Tc-GAP-LAS or GAP-HCD (300 μCi/rat, iv) and imaged at 0.5-4.0 hrs in mammary tumor-bearing rats (derived from RBA CRL-1747 cell line). Whole-body autoradiogramrs were obtained by a quantitative image analyzer (Cyclone Storage Phosphor System, Packard, Meridian, Conn.). […]

O=C([O-])CN(CCN(CC(=O)[O-])CC(=O)[O-])CCN(CC(=O)[O-])CC(=O)[O-].[99Tc+4] [^99mTc-DTPA]
tumor visualization on scintigraphic images: tumor could be visualized
